Measurements taken from US8197819B2, “Env polypeptide complexes and methods of use” (priority 2004, dated 2012).
Entries after “also recorded” stand apart in the source; their conditions may differ.

What was measured:
Design in all cases: species or system HIV
gp120SF162 (17b epitope) = gp120SF162 (17b epitope) (Human immunodeficiency virus type 1 group M subtype B, UniProt P19550); assay: SPR (Biacore) upregulation of monoclonal antibody 17b binding to Env/compound complex; conditions: for upregulation of CD4 inducible epitopes on gp120: FIGS. 4B, 5B, antibody not stated in the legend
Protocol: (§1) In a second step, each of the 100 structurally identified compounds was screened for its ability to compete with CD4 binding to Env (gp120) as well as its ability to induce the desired conformational change in the HIV Env protein to expose inducible epitopes. Both binding competition and exposure of cryptic epitopes were analyzed using Biacore's SRP systems. (Biacore Inc., Piscataway, N.J.), following the manufacturer's instructions.
(§2) Surface plasmon resonance assays were performed using a BIACORE 3000 optical biosensor system (Biacore AB, Uppsala, Sweden) with simultaneous monitoring of relevant flow cells. To perform the kinetic study of the binding of HIV env to sCD4, sCD4 was immobilized using amine coupling onto CM5 sensor chip to attain 4000 response units. To perform the kinetic study of the binding of HIV env to the monoclonal antibody 17b, antibodies were immobilized using amine coupling onto a CM5 sensor chip to attain 2000 response units. Using PBS buffer (pH 7.4) with 0.05% Tween 20 and 3% DMSO, association was assessed by passing gp120SF162 (GenBank P03378; Sanchez-Pescador et al. (1985) Science, 227(4686): 484-492), with and without various controls or small molecules, over the chip surface at a flow rate of 25 μl/min. The concentration of gp120SMF162 used was 1 uM for all samples. As a negative control, a control surface coupled to 2000 response units of BSA (Pierce) was used. A buffer only control was subtracted from all sensograms. Responses were measured by assessing the maximum RUs (response units) obtained at the peak of the binding curve.
The percentage upregulation of 17b was determined by dividing the peak RU observed for the Env polypeptide/compound complex divided by the peak RU for the Env polypeptide alone.
(§3) Additional candidate small molecules were screened for CD4 binding inhibition and upregulation of CD4 inducible epitopes, e.g., mABs 17b and 48D, by HPLC and BlAcore methods as described in Examples 1 and 4 above. Each of the compounds in Table 5 below was screened three times by both methods using different lots of both gp120 and antibodies. The rounds of screening tests were additionally carried out on different dates.

gp120 (48D epitope) = target: T1, gp120 (48D epitope) (Human immunodeficiency virus type 1 group M subtype B, UniProt P19550); assay: SPR (Biacore) upregulation of monoclonal antibody 48D binding to Env/compound complex; conditions: Example 6 screening; FIG. 6C
T1 construct: The concentration of gp120SMF162 used was 1 uM for all samples
Protocol: as §2
Additional candidate small molecules were screened for CD4 binding inhibition and upregulation of CD4 inducible epitopes, e.g., mABs 17b and 48D, by HPLC and BlAcore methods as described in Examples 1 and 4 above. […]

gp120SF162 [1] = target: T2, gp120SF162 (Human immunodeficiency virus type 1 group M subtype B, UniProt P19550); assay: Example 6 screening for CD4 binding inhibition (SEC-HPLC with fluorescently-labelled CD4, and Biacore); conditions: three rounds
Text: as §3
CD4 binding competition was examined in the free solution state by HPLC. Various candidate small molecules were each mixed with gp120SF162 and the resulting solution was incubated for 1 hour at 37° C. Fluorescently-labelled CD4, CD4 488, was then added to each incubated solution, and the resulting mixture was analyzed by size exclusion HPLC (SEC-HPLC), using fluorescent signal detection. The extent of competition with CD4 was determined as follows.

gp120SF162 [2] = target: T2, gp120SF162; assay: SPR (Biacore) competition: gp120 binding to immobilized sCD4 with and without small molecule; conditions: FIG. 1, compared to when the small molecule was not present
Protocol: as §1
as §2, with “The concentration of gp120SMF162 used was 1 uM for all samples. As a negative control, a control surface coupled to 2000 response units of BSA (Pierce) was used. A buffer only control was subtracted from all sensograms.” left out

Structure (SMILES) | upregulation of 17b (CD4 inducible epitope on gp120) (gp120SF162 (17b epitope); Example 6 screening, binding to monoclonal antibody 17b) | upregulation of CD4 inducible epitopes on gp120, binding to monoclonal antibody 48D (gp120 (48D epitope)) | inhibition of (competition with) CD4 binding to gp120 (gp120SF162 [1]) | upregulation of CD4 inducible epitopes on gp120 (gp120SF162 (17b epitope); Example 6 screening) | inhibition of CD4 binding to Env (Env binding to the CD4 chip) (gp120SF162 [2]) | binding of Env/small molecule complex to monoclonal antibody 17b (gp120SF162 (17b epitope); SPR, FIG. 2, in comparison to Env-sCD4 complexes)
COc1ccc2[nH]cc(C(=O)CN3CCN(Cc4ccccc4)CC3)c2c1 [Compound 2, 2-(4-benzylpiperazin-1-yl)-1-(5-methoxy-1H-indol-3-yl)ethanone] | upregulation of CD4 inducible epitopes on gp120 | upregulation of CD4 inducible epitopes on gp120 | non-inhibition of CD4 binding to gp120 | – | – | –
COc1ccccc1N1CCN(CC(=O)c2c(C)[nH]c3ccccc23)CC1 [Compound 26, 2-[4-(2-Methoxy-phenyl)-piperazin-1-yl]-1-(2-methyl-1H-indol-3-yl)-ethanone] | – | – | inhibition of CD4 binding to gp120 | upregulation of CD4 inducible epititopes on gp120 | – | –
CCOC(=O)C1CCN(C(=O)c2cc3c(C)cc(C)cc3[nH]2)CC1 [Compound 5, ethyl 1-[(4,6-dimethyl-1H-indol-2-yl)carbonyl]piperidine-4-carboxylate] | – | – | – | – | inhibition of CD4 binding to Env; also recorded: inhibited binding of Env to the CD4 chip | exhibited enhanced binding to monoclonal antibody 17b
COc1cc(C(=O)N2CCC(c3c[nH]c4ccccc34)CC2)cc(OC)c1OC [Compound 12, [4-(1H-indol-3-yl)-piperidin-1-yl]-(3,4,5-trimethoxy-phenyl)-methanone] | – | – | inhibition of CD4 binding to gp120 | absence of upregulation of CD4 inducible epititopes on gp120 | – | –
